From paper PMC9311798, “A Novel Class of Potent Anti-Tyrosinase Compounds with Antioxidant Activity, 2-(Substituted phenyl)-5-(trifluoromethyl)benzo[d]thiazoles: In Vitro and In Silico Insights” (Antioxidants, 2022)

Experiments:
[1] = DPPH radical scavenging activity assay; conditions: compound 1.0 mM, 30 min in the dark, 517 nm
Experimental: The DPPH (2,2-diphenyl-1-picrylhydrazyl) scavenging activities of synthesized compounds 1a–1p were investigated as previously described, with minor modifications. A dimethyl sulfoxide solution (20 µL) containing 10 mM of each compound was mixed with DPPH methanol solution (0.2 mM, 180 µL) in the wells of a 96-well plate, and placed in the dark for 30 min at room temperature. At 517 nm, optical densities were measured using a microplate reader (VersaMax^TM, Molecular Devices, Sunnyvale, CA, USA). The DPPH radical scavenging ability of the 2-arylbenzothiazole derivatives was compared with that of L-ascorbic acid, the positive control. All experiments were performed independently in triplicate.

[2] = system: intracellular ROS in B16F10 cells; experiment: Intracellular ROS scavenging (DCFH-DA assay, SIN-1 induced); assay type: cell-based, murine; conditions: 20 µM, SIN-1 10 µM, trolox 20 µM positive control
Experimental: Intracellular ROS scavenging evaluation was performed as reported by Ali et al. and Lebel and Bondy. ROS generation was assessed using the ROS-sensitive fluorescence indicator DCFH-DA. Briefly, B16F10 cells were seeded in 96-well black plates (1 × 10^4 cell/well), incubated for 24 h, treated with compounds 1a–1p (20 µM in DMSO) for 2 h, stimulated with 10 µL of SIN-1 (100 µM in 50 mM sodium phosphate buffer, pH 7.4) for 1 h to induce ROS production, and then incubated with DCFH-DA (20 µM) for 30 min at 37 °C. Fluorescence was measured for 30 min at 5 min intervals at an excitation wavelength of 485 nm and emission wavelength of 535 nm, using a Berthold microplate reader (Berthold Technologies GmbH &Co., Wien, Austria).

[3] = ABTS radical scavenging activity assay; conditions: 100 µM, 2 min in the dark; for ABTS free radical scavenged (%): 734 nm
Experimental: At 734 nm, optical densities of the solutions were measured using a microplate reader (VersaMax^TM, Molecular Devices, Sunnyvale, CA, USA). The ABTS radical scavenging capacities of the 16 2-arylbenzothiazole derivatives were compared with trolox. All experiments were performed independently in triplicate.

mushroom tyrosinase = biological target: T1, mushroom tyrosinase (Agaricus bisporus, UniProt C7FF04); experiment: Mushroom tyrosinase inhibition assay; assay type: biochemical; conditions: L-tyrosine as substrate
T1 construct: purchased Sigma-Aldrich
T1 sequence (C7FF04 1-392 limits assumed): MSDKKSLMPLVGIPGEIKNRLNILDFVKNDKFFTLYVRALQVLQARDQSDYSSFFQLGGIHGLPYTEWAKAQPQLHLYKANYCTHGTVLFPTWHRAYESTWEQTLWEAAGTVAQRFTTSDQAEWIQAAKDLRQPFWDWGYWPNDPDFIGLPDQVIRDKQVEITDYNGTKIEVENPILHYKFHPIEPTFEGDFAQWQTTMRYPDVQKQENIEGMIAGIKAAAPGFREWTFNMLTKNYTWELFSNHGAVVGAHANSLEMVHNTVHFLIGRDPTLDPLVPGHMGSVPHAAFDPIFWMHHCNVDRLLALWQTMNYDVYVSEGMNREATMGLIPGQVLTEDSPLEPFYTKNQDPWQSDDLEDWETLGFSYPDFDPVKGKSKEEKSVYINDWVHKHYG
Experimental: Mushroom tyrosinase inhibitory activity was determined as described previously, with minor modifications. L-Tyrosine was used as a substrate to determine enzyme activities. […] These dose-dependent inhibition experiments were carried out three times using three to five different concentrations of test compounds to determine IC50 values. Log–linear curves and their equations were derived from the observed percentages of inhibition.

| SMILES | melting point | DPPH radical scavenging activity [1] | intracellular ROS scavenging [2] | ABTS radical scavenging activity (in words) [3] | ABTS free radical scavenged (%) [3] | IC50 (mushroom tyrosinase) |
| --- | --- | --- | --- | --- | --- | --- |
| Oc1ccc(-c2nc3cc(C(F)(F)F)ccc3s2)cc1O [Compound 1c, 4-(5-(Trifluoromethyl)benzo[d]thiazol-2-yl)benzene-1,2-diol] | 267.3 to 269.4 °C | greatest DPPH radical scavenging activity (comparable to L-ascorbic acid) | scavenged intracellular ROS far more potently than trolox | potently scavenged the ABTS radical | 92.4% | > 300 µM |
| COc1cc(-c2nc3cc(C(F)(F)F)ccc3s2)ccc1O [Compound 1d, 2-Methoxy-4-(5-(trifluoromethyl)benzo[d]thiazol-2-yl)phenol] | 155.7 to 159.9 °C | moderate DPPH radical scavenging efficacy | – | – | – | 291 ± 63.8 µM |
| CCOc1cc(-c2nc3cc(C(F)(F)F)ccc3s2)ccc1O [Compound 1e, 2-Ethoxy-4-(5-(trifluoromethyl)benzo[d]thiazol-2-yl)phenol] | 117 to 117.8 °C | – | – | – | – | > 300 µM |
| COc1ccc(-c2nc3cc(C(F)(F)F)ccc3s2)cc1O [Compound 1f, 2-Methoxy-5-(5-(trifluoromethyl)benzo[d]thiazol-2-yl)phenol] | 142.1 to 144.5 °C | moderate DPPH radical scavenging efficacy | – | – | – | > 300 µM |
| Oc1ccccc1-c1nc2cc(C(F)(F)F)ccc2s1 [Compound 1g, 2-(5-(Trifluoromethyl)benzo[d]thiazol-2-yl)phenol] | 175 to 176.5 °C | – | scavenged intracellular ROS to a similar extent to trolox | – | – | > 300 µM |
| COc1ccc(-c2nc3cc(C(F)(F)F)ccc3s2)cc1 [Compound 1h, 2-(4-Methoxyphenyl)-5-(trifluoromethyl)benzo[d]thiazole] | 128.8 to 130.1 °C | – | – | – | – | > 300 µM |
| COc1ccc(-c2nc3cc(C(F)(F)F)ccc3s2)c(OC)c1 [Compound 1i, 2-(2,4-Dimethoxyphenyl)-5-(trifluoromethyl)benzo[d]thiazole] | 140.4 to 141.6 °C | – | – | – | – | > 300 µM |
| COc1ccc(-c2nc3cc(C(F)(F)F)ccc3s2)cc1OC [Compound 1j, 2-(3,4-Dimethoxyphenyl)-5-(trifluoromethyl)benzo[d]thiazole] | 120.4 to 121.6 °C | – | – | – | – | 264 ± 56.6 µM |
| COc1cc(-c2nc3cc(C(F)(F)F)ccc3s2)cc(OC)c1OC [Compound 1k, 5-(Trifluoromethyl)-2-(3,4,5-trimethoxyphenyl)benzo[d]thiazole] | 132.5 to 134 °C | – | – | – | – | > 300 µM |
| COc1cc(-c2nc3cc(C(F)(F)F)ccc3s2)cc(OC)c1O [Compound 1l, 2,6-Dimethoxy-4-(5-(trifluoromethyl)benzo[d]thiazol-2-yl)phenol] | 220.6 to 222.6 °C | moderate DPPH radical scavenging efficacy | – | – | – | > 300 µM |
| Cc1cc(-c2nc3cc(C(F)(F)F)ccc3s2)cc(C)c1O [Compound 1m, 2,6-Dimethyl-4-(5-(trifluoromethyl)benzo[d]thiazol-2-yl)phenol] | – | moderate DPPH radical scavenging efficacy | – | – | – | 129 ± 19.8 µM |
| Oc1cc(O)cc(-c2nc3cc(C(F)(F)F)ccc3s2)c1 [Compound 1n, 5-(5-(Trifluoromethyl)benzo[d]thiazol-2-yl)benzene-1,3-diol] | 256.7 to 260.6 °C | moderate DPPH radical scavenging efficacy | scavenged intracellular ROS to a similar extent to trolox | potently scavenged the ABTS radical | – | 217 ± 32.7 µM |
| Oc1c(Br)cc(-c2nc3cc(C(F)(F)F)ccc3s2)cc1Br [Compound 1o, 2,6-Dibromo-4-(5-(trifluoromethyl)benzo[d]thiazol-2-yl)phenol] | – | – | – | – | – | > 300 µM |
| Oc1ccc(-c2nc3cc(C(F)(F)F)ccc3s2)cc1Br [Compound 1p, 2-Bromo-4-(5-(trifluoromethyl)benzo[d]thiazol-2-yl)phenol] | – | – | scavenged intracellular ROS to a similar extent to trolox | – | – | 102 ± 12.4 µM |
| Cc1c(C)c2c(c(C)c1O)CCC(C)(C(=O)O)O2 (stereo not drawn) [trolox, 6-hydroxy-2,5,7,8-tetramethylchroman-2-carboxylic acid, reference compound] | – | – | – | – | 98.9% | – |
